{"source": "ChEMBL document CHEMBL1141823", "about": "“Malayenolides A-D, novel diterpenes from the indonesian sea pen veretillum malayense” (J Nat Prod, 1999)"}
{"assay": "Toxicity against brine shrimp", "format": "organism-based", "details": "artemia, in vivo", "units": {"LC50": "µg/mL"}}
{"smiles": "CC(=O)O[C@H]1CC=C(C)[C@@H]2CC3=C(C)C(=O)O[C@H]3/C=C(/C)CC[C@H](OC(=O)c3ccccc3)[C@@]12C", "note": "[MALAYENOLIDE A]", "LC50": 100}
{"smiles": "CC(=O)O[C@H]1C[C@@H]2O[C@]2(C)[C@@H]2CC3=C(C)C(=O)O[C@H]3/C=C(/C)CC[C@H](OC(=O)c3ccccc3)[C@@]12C", "note": "[MALAYENOLIDE B]", "LC50": "< 2"}
{"smiles": "CC(=O)O[C@H]1CC=C(C)[C@@H]2CC3=C(C)C(=O)O[C@H]3/C=C(/C)CC[C@H](OC(=O)C=C(C)C)[C@@]12C", "note": "[MALAYENOLIDE C]", "LC50": 20}
{"smiles": "CC(=O)O[C@H]1C[C@@H]2O[C@]2(C)[C@@H]2CC3=C(C)C(=O)O[C@H]3/C=C(/C)CC[C@H](OC(=O)C=C(C)C)[C@@]12C", "note": "[MALAYENOLIDE D]", "LC50": 20}
